Experimental data taken from article PMC9967275, “Screening the Pathogen Box to Discover and Characterize New Cruzain and TbrCatL Inhibitors” (Pathogens, 2023).

Assays:
[1] = molecular target: T1, TbrCatL (Trypanosoma brucei rhodesiense, UniProt Q95PM0); test: TbrCatL enzymatic inhibition assay (cleavage of fluorogenic substrate Z-FR-AMC); format: biochemical; conditions: for TbrCatL 0’ Inhibition / TbrCatL 10’ Inhibition: sheet "Screening results"
T1 construct: Conor Caffrey (University of California San Diego)
Method: (§1) Allison Doak and Prof. Brian Shoichet (University of California San Francisco, San Francisco, CA, USA) and Prof. Conor Caffrey (University of California San Diego, San Diego, CA, USA) generously provided recombinant cruzain and TbrCatL, respectively. In vitro activity of proteases cruzain and TbrCatL was assayed as previously described. Briefly, enzyme activity was measured by monitoring the cleavage of the fluorogenic substrate […] (Z-FR-AMC) at 25 °C. Fluorescence was monitored at 340/440 nm (excitation/emission) over 5–7 min in a Synergy2 Biotek plate reader. […] DMSO and 1 μM E-64 were employed as negative and positive controls, respectively, in all assays. Two conditions were employed for both enzymes: 10′ pre-incubation of the enzyme in the presence of the compound (10′ inc) and no pre-incubation (0′). Reported values correspond to the mean and standard error of the mean (SEM) and all analyses were performed using GraphPad Prism 6.0.
(§2) For the initial screening, compounds were assayed at 5 μM. […] IC50 curves were obtained from a non-linear fit of at least seven distinct compound concentrations, in triplicate. Reported IC50 values are the mean and SEM of two independent measurements.

[2] = molecular target: cruzain (Trypanosoma cruzi, UniProt P25779); test: biochemical; conditions: for Cruzain 0’ Inhibition / Cruzain 10’ Inhibition: sheet "Screening results"
Method: as §1, §2

[3] = 0’ (no pre-incubation), sheet Screening results
[4] = 10’ (pre-incubation), sheet Screening results
[5] = 0’ (pre-incubation time), Pathogen Box screening results
[6] = 10’ (pre-incubation time), Pathogen Box screening results
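Further: at 5 µM compound concentration.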

Sequence of cruzain (P25779 123-337 limits assumed): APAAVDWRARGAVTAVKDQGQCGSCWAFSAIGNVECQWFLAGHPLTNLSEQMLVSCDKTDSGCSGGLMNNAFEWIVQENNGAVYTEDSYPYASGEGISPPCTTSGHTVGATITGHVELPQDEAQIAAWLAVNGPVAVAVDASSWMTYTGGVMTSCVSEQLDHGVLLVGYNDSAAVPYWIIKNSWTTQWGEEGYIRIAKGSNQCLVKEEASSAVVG
T1 sequence (Q95PM0 entry or part of it): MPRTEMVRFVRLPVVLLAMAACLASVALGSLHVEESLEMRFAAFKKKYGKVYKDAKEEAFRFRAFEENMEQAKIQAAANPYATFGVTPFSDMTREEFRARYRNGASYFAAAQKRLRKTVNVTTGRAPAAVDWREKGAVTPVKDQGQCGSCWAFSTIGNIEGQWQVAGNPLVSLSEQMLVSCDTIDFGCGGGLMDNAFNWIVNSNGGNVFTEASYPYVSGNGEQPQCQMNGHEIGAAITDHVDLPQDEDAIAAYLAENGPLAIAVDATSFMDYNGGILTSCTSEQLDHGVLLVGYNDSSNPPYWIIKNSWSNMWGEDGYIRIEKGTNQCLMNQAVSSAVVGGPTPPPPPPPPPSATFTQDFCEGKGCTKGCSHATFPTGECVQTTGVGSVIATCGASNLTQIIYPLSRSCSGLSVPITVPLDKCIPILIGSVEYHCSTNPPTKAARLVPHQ

Row | SMILES | TbrCatL Inhibition 0’ [1, 3] [%] | TbrCatL Inhibition 10’ [1, 4] [%] | Cruzain Inhibition 0’ [2, 3] [%] | Cruzain Inhibition 10’ [2, 4] [%] | TbrCatL 0’ Inhibition ([1]; 0’ (pre-incubation time)) [%] | TbrCatL 10’ Inhibition ([1]; 10’ (pre-incubation time)) [%] | Cruzain 0’ Inhibition ([2]; 0’ (pre-incubation time)) [%] | Cruzain 10’ Inhibition ([2]; 10’ (pre-incubation time)) [%] | further results
1 | O[C@@H](c1cc(C(F)(F)F)nc2c(C(F)(F)F)cccc12)[C@H]1CCCCN1 [MMV000016] | 2.4 | -2.6 | -5.4 | -9 |  |  |  |  | 
2 | COc1cc(N[C@@H](C)CCCN)c2ncccc2c1 [MMV000023] | 9 | 5 | 2.8 | 6.4 |  |  |  |  | 
3 | N=C(N)c1ccc(OCCCCCOc2ccc(C(=N)N)cc2)cc1 [MMV000062] | 3 | -3 | 19 | 13 |  |  |  |  | 
4 | CCN(CC)CCCCCCNc1cc(OC)cc2c(C)ccnc12 [MMV000063] | 2.7 | 5.6 | 16 | 3 |  |  |  |  | 
5 | O=S(=O)(c1ccc(Cl)cc1)N1CCN(C(=S)NCc2ccco2)CC1 [MMV000858] | 0.9 | 6 | 8 | 13 |  |  |  |  | 
6 | COc1cccc2c(C)nc(N=C(N)N)nc12 [MMV000907] | 32 | 23 | 9.5 | 25 |  |  |  |  | 
7 | CCCS(=O)(=O)N1CCC(CO)(Cc2ccccc2C(F)(F)F)CC1 [MMV001059] |  |  |  |  | -3.7 | -0.8 | 0.9 | -1.3 | 
8 | COC(=O)C1=C(C)NC(C)=C(C(=O)OC(C)C)[C@H]1c1cccc2nonc12 [MMV001493] | 1.3 | -2.4 | 26 | 12 |  |  |  |  | 
9 | C[C@H]1CS(=O)(=O)CCN1/N=C/c1ccc([N+](=O)[O-])o1 [MMV001499] |  |  |  |  | 5 | 11 | 7 | 7.5 | 
10 | NCCC[C@@](N)(C(=O)O)C(F)F [MMV001625] | 2 | -1.9 | 20 | 7 |  |  |  |  | 
11 | O=C(C1CCCCC1)N1CC(=O)N2CCc3ccccc3[C@@H]2C1 [MMV002529] | 5 | 5.7 | 22 | 18 |  |  |  |  | 
12 | CCN(CC)C(=O)N1CCN(C)CC1 [MMV002816] |  |  |  |  | -0.5 | 0.1 | 2.5 | 1.9 | 
13 | Oc1c(I)cc(I)c2cccnc12 [MMV002817] | 0.5 | -24 | 0.2 | -16 |  |  |  |  | 
14 | COC(=O)Nc1nc2ccc(C(=O)c3ccccc3)cc2[nH]1 [MMV003152] | 4.7 | -5.3 | 3.3 | -1.4 |  |  |  |  | 
15 | CN1CCCN(C(c2ccccc2)c2ccc(Cl)cc2)CC1 (centres unmarked) [MMV004168] |  |  |  |  | -5.4 | 1.8 | 3.6 | 6.6 | 
16 | O=C1Nc2ccc(Br)cc2C12NCCc1c2[nH]c2ccccc12 (centres unmarked) [MMV006239] | 2.6 | 2.6 | 7.5 | 2.2 |  |  |  |  | 
17 | Cc1ccc2[nH]c3c(NCCN(C)C)ncnc3c2c1 [MMV006372] | 10 | 14 | 27 | 21 |  |  |  |  | 
18 | COc1cc2ncnc(NC3CCN(Cc4ccccc4)CC3)c2cc1OC [MMV006741] | 15 | 5.4 | 8 | 10 |  |  |  |  | 
19 | Cc1cc(Cl)c(S(=O)(=O)N2CCCC2)cc1OCC(=O)NC1CCCCC1 [MMV006833] |  |  |  |  | 1.6 | 11 | 3 | 8 | 
20 | CN(C)c1cc(NC(=O)Nc2ccccc2)c2ccccc2n1 [MMV006901] | 9 | 20 | 13 | 24 |  |  |  |  | 
21 | Cc1cc(NC(=O)c2ccc(S(=O)(=O)N(Cc3ccccc3)C(C)C)cc2)no1 [MMV007133] |  |  |  |  | -7 | -11 | -3 | -4.5 | 

Row | SMILES | TbrCatL Inhibition 0’ [1, 3] [%] | TbrCatL Inhibition 10’ [1, 4] [%] | Cruzain Inhibition 0’ [2, 3] [%] | Cruzain Inhibition 10’ [2, 4] [%] | TbrCatL 0’ Inhibition ([1]; 0’ (pre-incubation time)) [%] | TbrCatL 10’ Inhibition ([1]; 10’ (pre-incubation time)) [%] | Cruzain 0’ Inhibition ([2]; 0’ (pre-incubation time)) [%] | Cruzain 10’ Inhibition ([2]; 10’ (pre-incubation time)) [%] | further results
22 | COc1cc(OC)cc(C(=O)NCC2Cc3cc(Cl)cc(-c4ccncc4)c3O2)c1 (centres unmarked) [MMV007471] |  |  |  |  | 0.4 | -2 | 1.1 | 6 | 
23 | Cc1cc(C)n(-c2ccc(NC(=O)C3CCN(Cc4cnc(C)s4)CC3)cc2)n1 [MMV007625] |  |  |  |  | 1.5 | -1.8 | 5 | 1.6 | 
24 | CCOc1ccc(-c2nc(NC(=O)CS(=O)(=O)c3ccccc3)sc2C)cc1 [MMV007638] | 0.6 | 9 | 7 | 10 |  |  |  |  | 
25 | O=C(NC1CC1)c1ccc(CSCc2ccccc2Cl)o1 [MMV007803] |  |  |  |  | -6.5 | -0.2 | 0.3 | -1.7 | 
26 | Nc1ccc(C(=O)Nc2ccc(-c3nc4ccccc4o3)cc2)cc1 [MMV007920] |  |  |  |  | 4.7 | -0.7 | 7 | 11 | 
27 | COc1ccc(CN2CCOc3ccc(C(C)(O)CN(C)C)cc3C2)cc1C (centres unmarked) [MMV008439] | -5 | -3.4 | 0.3 | 0 |  |  |  |  | 
28 | Cc1cc(C(=O)Nc2cnn(Cc3ccc(Cl)cc3Cl)c2)no1 [MMV009054] | -14 | -16 | -1.8 | -2 |  |  |  |  | 
29 | O=C(C1CCN(c2nnnn2-c2ccccc2)CC1)N1CCc2ccccc2C1 [MMV009135] |  |  |  |  | -1.2 | 6 | 0.1 | 0.1 | 
30 | COc1ccc(-c2cnc3ccc(NCc4ccc(S(N)(=O)=O)cc4)nn23)cn1 [MMV010545] |  |  |  |  | -3.2 | 7 | 0.8 | 3.6 | 
31 | COc1cc(-c2cc(-c3ccc(S(C)(=O)=O)cc3)cnc2N)ccc1O [MMV010576] |  |  |  |  | 0.5 | 0.9 | 1.1 | 4 | 
32 | c1csc(-c2cnc3sc(NCC4CCOCC4)nn23)c1 [MMV010764] | 14 | 19 | 14 | 16 |  |  |  |  | 
33 | Cc1cc(Nc2ccc(C(F)(F)F)cc2)n2ccnc2n1 [MMV011229] |  |  |  |  | -1 | 6 | -0.9 | 1.4 | 
34 | COc1ccc(CCN2CCC(NCc3cccc(N(C)C)c3)CC2)cc1 [MMV011511] |  |  |  |  | 0.4 | 9 | 5.7 | 3.6 | 
35 | NCC(=O)N1CCn2c(nc(-c3ccccc3)c2Nc2ccc3c(c2)OCO3)C1 [MMV011691] |  |  |  |  | -1.7 | 1.3 | 1.8 | -3.4 | 
36 | FC(F)(F)c1cnc(Sc2nnc(-c3ccncc3)o2)c(Cl)c1 [MMV011765] |  |  |  |  | -4 | -1.2 | 0.7 | -0.5 | 
37 | Cc1ccc(NC(=O)c2nc[nH]c2C(=O)Nc2nc3ccccc3[nH]2)c(C)c1 [MMV011903] | -18 | -43 | -1.2 | -15 |  |  |  |  | 
38 | Cc1nc2ccccn2c1C(=O)NCc1ccc(Cl)cc1 [MMV012074] | -0.2 | 5.6 | 25 | 12 |  |  |  |  | 
39 | Cc1cc(Nc2ccncc2)n2nc(C)c(-c3ccccc3Cl)c2n1 [MMV016136] | 3.2 | 6 | 4.7 | 4.5 |  |  |  |  | 
40 | Cc1ccc(-c2cc(C(=O)Nc3cccnc3)c3cc(Br)ccc3n2)cc1 [MMV016838] |  |  |  |  |  |  |  |  | TbrCatL Inhibition 0’ [1, 5]: 1.7%; TbrCatL Inhibition 10’ [1, 6]: 0.3%; Cruzain Inhibition 0’ [2, 5]: 4.3%; Cruzain Inhibition 10’ [2, 6]: 7.6%
41 | Cc1cc(C)n2nc(C(=O)Nc3cc(C(F)(F)F)ccc3N3CCOCC3)nc2n1 [MMV019087] | 4.3 | 3 | 1.6 | 2.6 |  |  |  |  | 
